ChEMBL document CHEMBL6153079, “Discovery of noncovalent diaminopyrimidine-based Inhibitors for glioblastoma via a dual FAK/DNA targeting strategy” (Eur J Med Chem, 2025)

Experiment: Toxicity in BALB/c mouse implanted with human U-87 MG cells assessed as liver damage at 25 mg/kg, ip administered once daily for 15 days by H and E staining based analysis
Assay type: organism-based
Conditions: in vivo, 360 h, time 15 day

CNC(=O)c1ccccc1Nc1nc(Nc2ccc(N3CCN(CCOC(=O)CCCc4ccc(N(CCCl)CCCl)cc4)CC3)cc2)ncc1C(F)(F)F
Activity: Non-toxic
